Data set [1] is described as follows: Whole Blood Stability Assay (mouse whole blood). Type of data set: in vitro ADME. To be noted: CD-1 mouse blood, EDTA-K2, final conc. 2 μM, 37° C., 0-120 min; for half-life at 2 μM: male, fresh whole blood, read-out: Mouse Whole Blood Stability t1/2. Here is the method:
Whole Blood Stability Assay
This Example illustrates that exemplary compounds of the present invention is cleavage in mouse whole blood.
(§1) Test Compounds and Stock Solutions: Stock Conc. 10 mM; Final Conc. 2 μM
(§2) Test Compound and Control Working Solution Preparation:
• Intermediate solution: 5 μL of compound stock solution (10 mM in dimethyl sulfoxide (DMSO)) were diluted with […] of DMSO (intermediate solution concentration: 1 mM, 100% DMSO) • Propantheline bromide (control) intermediate solution: 5 μL of propantheline stock solution (10 mM in ultra-pure water) were diluted with 45 μL of ultra-pure water (intermediate solution concentration: 1 mM) • Working solution 1: 20 μL of test compound intermediate solution (1 mM) were diluted with 180 μL of 45% ACN/H2O (working solution concentration: […], 40.5% ACN, 10% DMSO) • Working solution 2: 20 μL of control intermediate solution (1 mM) were diluted with 180 μL of 45% ACN/H2O (working solution concentration: 100 μM, 40.5% ACN, 10% DMSO) • Species/Matrix: CD-1 Mouse Blood • No. of Individuals: n>3 Male • Anticoagulant Used: EDTA-K2
• The fresh blood was collected on the day of experiment and pre-warmed in a water bath at 37° C. • Using an Apricot automation workstation, 98 μL/well of blank blood were added to all 96-well reaction plates (Blank, T0, T10, T30, T60 and T120). • An Apricot automation workstation was used to add 2 μL/well of working solution (100 μM) to all reaction plates except Blank (T0, T10, T30, T60 and T120). • All reaction plates containing mixtures of compound and blood were incubated at 37° C. in water bath. • The reaction plates were incubated at 37° C., and timer was started. • At the end of incubation, mixed 100 μL water with 100 μL spiked blood samples, then added 800 μL of stop solution (200 ng/mL tolbutamide and 200 ng/mL labetalol in ACN) to precipitate protein. Mixed thoroughly. • Each plate was sealed and shaken for 20 minutes. • After shaking, each plate was centrifuged at 4000 rpm and 4° C. for 20 minutes. • After centrifugation, an Apricot automation workstation was used to transfer 150 μL of supernatant from each reaction plate to its corresponding bioanalysis plate. • Each bioanalysis plate was submitted to LC-MS/MS analysis.
• The % remaining of test compound after incubation in blood was calculated using following equation:
(§3) [formula] • where PAR is the peak area ratio of analyte versus internal standard (IS) • The appointed incubation time points are TO (0 min), Tn (n=0, 10, 30, 60 and 120 min)

Data set [2] is described as follows: Plasma Stability Assay (human plasma). In kind it is in vitro ADME. To be noted: both sexes; pooled human plasma, heparin, final conc. 2 μM, 37° C., 0-120 min; read-out: Human Plasma Stability t1/2. Here is the method:
This Example illustrates that exemplary compounds of the present invention is cleavage in human plasma.
as §1, §2
• Test compound intermediate solution: 10 μL of compound stock solution (10 mM in dimethyl sulfoxide (DMSO)) were diluted with 90 μL of DMSO (intermediate solution concentration: 1 mM, 100% DMSO) • Control intermediate solution: 10 μL of control stock solution (10 mM in dimethyl sulfoxide (DMSO)) were diluted with 90 μL of DMSO (intermediate solution concentration: 1 mM, 100% DMSO) • Species/Matrix: Human Plasma • No. of Individuals: 3 Male & 3 Female • Anticoagulant Used: Heparin
• The pooled frozen plasma was thawed in a water bath at 37° C. prior to experiment. Plasma was centrifuged at 4000 rpm for 5 min and the clots were removed if any. • Using an Apricot automation workstation, 98 μL/well of blank plasma were added to all 96-well reaction plates. (Blank, T0, T10, T30, T60 and T120) • An Apricot automation workstation was used to add 2 μL/well of working solution (100 μM) to all reaction plates except Blank. (T0, T10, T30, T60 and T120) • All reaction plates containing mixtures of compound and plasma were incubated at 37° C. in water bath. • The reaction plates were incubated at 37° C., and timer was started. • At the end of incubation, added 500 μL of stop solution (200 ng/mL tolbutamide and 200 ng/mL labetalol in ACN) to precipitate protein. Mixed thoroughly. • Each plate was sealed and shaken for 20 minutes. • After shaking, each plate was centrifuged at 4000 rpm and 4° C. for 20 minutes • After centrifugation, an Apricot automation workstation was used to transfer 50 μL supernatant into 100 μL HPLC water. • Each bioanalysis plate was sealed and shaken for 10 minutes prior to LC-MS/MS analysis Data Analysis • The % remaining of test compound after incubation in blood was calculated using following equation:
as §3

Structures are written as SMILES. A value given as a limit tells only on which side of the number the result lay.

Consider `CCc1c(F)ccc2cc(OCOC(=O)N(C)C)cc(-c3ncc4c(N5C[C@@H]6C[C@H](C5)[C@H](O)C6)nc(OC[C@@]56CCCN5C[C@H](F)C6)nc4c3F)c12` [Example 20, ((5-ethyl-6-fluoro-4-(8-fluoro-2-(((2R,7aS)-2-fluorotetrahydro-1H-pyrrolizin-7a(5H)-yl)methoxy)-4-((1R,5R,6R)-6-hydroxy-3-azabicyclo[3.2.1]octan-3-yl)pyrido[4,3-d]pyrimidin-7-yl)naphthalen-2-yl)oxy)methyl dimethylcarbamate], for which the half-life at 2 μM in data set [1] and in data set [2] was over 4.82 h in each case.

Consider `CCc1c(F)ccc2cc(OC(=O)N3CCC(C)CC3)cc(N3CCc4c(nc(OC[C@@]56CCCN5C[C@H](F)C6)nc4N4CCC[C@]5(C4)NC(=O)NC5=O)C3)c12` [Example 56, 4-(4-((R)-2,4-dioxo-1,3,7-triazaspiro[4.5]decan-7-yl)-2-(((2R,7aS)-2-fluorotetrahydro-1H-pyrrolizin-7a(5H)-yl)methoxy)-5,8-dihydropyrido[3,4-d]pyrimidin-7(6H)-yl)-5-ethyl-6-fluoronaphthalen-2-yl 4-methylpiperidine-1-carboxylate], for which the half-life at 2 μM in data set [1] and in data set [2] was over 4.82 h each time.

As for `CCc1c(F)ccc2cc(OC(=O)C34CC5CC(CC(C5)C3)C4)cc(N3CCc4c(nc(OC[C@@]56CCCN5C[C@H](F)C6)nc4N4CCC[C@]5(C4)NC(=O)NC5=O)C3)c12` [Example 63, 4-(4-((R)-2,4-dioxo-1,3,7-triazaspiro[4.5]decan-7-yl)-2-(((2R,7aS)-2-fluorotetrahydro-1H-pyrrolizin-7a(5H)-yl)methoxy)-5,8-dihydropyrido[3,4-d]pyrimidin-7(6H)-yl)-5-ethyl-6-fluoronaphthalen-2-yl (3r,5r,7r)-adamantane-1-carboxylate], the half-life at 2 μM is 0.217 h in data set [1] and over 4.82 h in data set [2].

Regarding `CCc1c(F)ccc2cc(OC(=O)N3CCC3)cc(N3CCc4c(nc(OC[C@@]56CCCN5C[C@H](F)C6)nc4N4CCC[C@]5(C4)NC(=O)NC5=O)C3)c12` [Example 37, 4-(4-((R)-2,4-dioxo-1,3,7-triazaspiro[4.5]decan-7-yl)-2-(((2R,7aS)-2-fluorotetrahydro-1H-pyrrolizin-7a(5H)-yl)methoxy)-5,8-dihydropyrido[3,4-d]pyrimidin-7(6H)-yl)-5-ethyl-6-fluoronaphthalen-2-yl azetidine-1-carboxylate], the values for the half-life at 2 μM in data set [1] and in data set [2] were 3.15 h and over 4.82 h, respectively.

With `CCCC(=O)Oc1cc(-c2ncc3c(N4C[C@@H]5C[C@H](C4)[C@H](O)C5)nc(OC[C@@]45CCCN4C[C@H](F)C5)nc3c2F)c2c(CC)c(F)ccc2c1` [Example 11, 5-ethyl-6-fluoro-4-(8-fluoro-2-(((2R,7aS)-2-fluorotetrahydro-1H-pyrrolizin-7a(5H)-yl)methoxy)-4-((1R,5R,6R)-6-hydroxy-3-azabicyclo[3.2.1]octan-3-yl)pyrido[4,3-d]pyrimidin-7-yl)naphthalen-2-yl butyrate], the half-life at 2 μM was under 0.0833 h in data set [1] and 0.767 h in data set [2].

`CCc1c(F)ccc2cc(OC(=O)C34CCC(CC3)CC4)cc(N3CCc4c(nc(OC[C@@]56CCCN5C[C@H](F)C6)nc4N4CCC[C@]5(C4)NC(=O)NC5=O)C3)c12` [Example 66, 4-(4-((R)-2,4-dioxo-1,3,7-triazaspiro[4.5]decan-7-yl)-2-(((2R,7aS)-2-fluorotetrahydro-1H-pyrrolizin-7a(5H)-yl)methoxy)-5,8-dihydropyrido[3,4-d]pyrimidin-7(6H)-yl)-5-ethyl-6-fluoronaphthalen-2-yl bicyclo[2.2.2]octane-1-carboxylate]: the half-life at 2 μM was 0.117 h in data set [1] and over 4.82 h in data set [2].

`CCc1c(F)ccc2cc(OC(=O)OC(C)C)cc(-c3ncc4c(N5C[C@@H]6C[C@H](C5)[C@H](O)C6)nc(OC[C@@]56CCCN5C[C@H](F)C6)nc4c3F)c12` [Example 15, 5-ethyl-6-fluoro-4-(8-fluoro-2-(((2R,7aS)-2-fluorotetrahydro-1H-pyrrolizin-7a(5H)-yl)methoxy)-4-((1R,5R,6R)-6-hydroxy-3-azabicyclo[3.2.1]octan-3-yl)pyrido[4,3-d]pyrimidin-7-yl)naphthalen-2-yl isopropyl carbonate]: the half-life at 2 μM in data set [1] is under 0.0833 h; in data set [2], 2.43 h.

For the compound `CCc1c(F)ccc2cc(OC(=O)N(C)C)cc(N3CCc4c(nc(OC[C@@]56CCCN5C[C@H](F)C6)nc4N4CCC[C@]5(C4)NC(=O)NC5=O)C3)c12` [Example 35, 4-(4-((R)-2,4-dioxo-1,3,7-triazaspiro[4.5]decan-7-yl)-2-(((2R,7aS)-2-fluorotetrahydro-1H-pyrrolizin-7a(5H)-yl)methoxy)-5,8-dihydropyrido[3,4-d]pyrimidin-7(6H)-yl)-5-ethyl-6-fluoronaphthalen-2-yl dimethylcarbamate], the half-life at 2 μM in data set [1] and in data set [2] was over 4.82 h in each case.

In the case of `CCc1c(F)ccc2cc(OC(=O)N3CCCC[C@H]3C)cc(N3CCc4c(nc(OC[C@@]56CCCN5C[C@H](F)C6)nc4N4CCC[C@]5(C4)NC(=O)NC5=O)C3)c12` [Example 57, 4-(4-((R)-2,4-dioxo-1,3,7-triazaspiro[4.5]decan-7-yl)-2-(((2R,7aS)-2-fluorotetrahydro-1H-pyrrolizin-7a(5H)-yl)methoxy)-5,8-dihydropyrido[3,4-d]pyrimidin-7(6H)-yl)-5-ethyl-6-fluoronaphthalen-2-yl (R)-2-methylpiperidine-1-carboxylate], the half-life at 2 μM in data set [1] and in data set [2] was over 4.82 h throughout.

Regarding `CCc1c(F)ccc2cc(OC(C)=O)cc(-c3ncc4c(N5C[C@@H]6C[C@H](C5)[C@H](O)C6)nc(OC[C@@]56CCCN5C[C@H](F)C6)nc4c3F)c12` [Example 1, 5-ethyl-6-fluoro-4-(8-fluoro-2-(((2R,7aS)-2-fluorotetrahydro-1H-pyrrolizin-7a(5H)-yl)methoxy)-4-((1R,5R,6R)-6-hydroxy-3-azabicyclo[3.2.1]octan-3-yl)pyrido[4,3-d]pyrimidin-7-yl)naphthalen-2-yl acetate], the results for the half-life at 2 μM in data set [1] and in data set [2] were 0.05 h and 0.383 h, respectively.

Take `CCc1c(F)ccc2cc(OC(=O)C3CCCCC3)cc(-c3ncc4c(N5C[C@@H]6C[C@H](C5)[C@H](O)C6)nc(OC[C@@]56CCCN5C[C@H](F)C6)nc4c3F)c12` [Example 21, 5-ethyl-6-fluoro-4-(8-fluoro-2-(((2R,7aS)-2-fluorotetrahydro-1H-pyrrolizin-7a(5H)-yl)methoxy)-4-((1R,5R,6R)-6-hydroxy-3-azabicyclo[3.2.1]octan-3-yl)pyrido[4,3-d]pyrimidin-7-yl)naphthalen-2-yl cyclohexanecarboxylate]: in data set [1], the “Mouse Whole Blood Stability t1/2” value is 1 min. Moreover, the half-life at 2 μM in data set [2] was 0.683 h.
